For data set [1] the following is noted: cited from earlier work.
The conditions of data set [2]: aqueous systems; cited from earlier work.
Data set [3] deals with motor coordination in rats. Kind of data set: Rotarod, IR vs ER subcutaneous infusion profile in rats (Example 14). The data set is classed as in vivo. To be noted: at Cmax. The protocol: The example investigates reducing the rate of rise of plasma concentrations with the ER profile compared to the IR profile results in reduced CNS impairment. CNS side effects are measured as an impairment of motor coordination in rodents using the rotarod. Performance of rodents in a battery of neurobehavioral tests conducted during the infusion period are used as secondary endpoints as measures of CNS impairment.
The infusion protocols are designed to produce pharmacokinetic profiles of lacosamide similar to that of IR lacosamide administered twice-a-day (BID) to humans (IR profile) or an extended release profile administered once-a-day (QD) to humans (ER profile) at varying doses administered as IR BID or ER QD.
Rats are pre-trained on the rotarod prior to testing and assigned to groups based on their body weights.
Following the period of acclimation, rats are surgically implanted with subcutaneous programmable pumps (iPRECIO), per the manufacturer's instructions. […]
On the test day at the specified time point, rats are placed on the rotarod and the rotarod is accelerated from 0-40 rpm over a 5 minute session, using the built-in function of the equipment. […] The time that each animal stays on the rotarod prior to falling is automatically recorded as the animal's fall latency. […]
(In general: In the rotarod test animals must keep their balance on a rotating rod.)

Data set [4] concerns motor coordination in mice. Briefly: Rotarod test in mice, PD phase (Example 12). The format is in vivo. The protocol: The rotarod (Ugo Basile, […]) is a device that allows for quantitative measurement of motor coordination in rodents. Animals are pre-trained prior to testing on the rotarod.
24 hours prior to the test day, mice are trained to run on the accelerating rotarod for at least 120 s in two consecutive trials. The mice are given up to 12 trials to achieve this performance criterion. Any mice not meeting this criterion are excluded from the test study.
Mice are randomized to treatment groups (vehicle; IV: 3, 10 30 mg/kg; PO: 10, 30, 90 mg/kg). On the day of the test, the animals are dosed with test article and placed on the rotarod 5 minutes post-dosing. The rotarod is accelerated from 0-40 rpm over a 5 minute session, using the built-in function of the equipment. The rotarod test is repeated for each mouse at 15, 30 and 60 minutes post-drug administration. Animals that stay on the rotarod are assigned a run-time of 300 seconds. The time that each animal stays on the rotarod prior to falling is automatically recorded as the animal's fall latency.
The latency to fall time on the rotarod recorded for each animal is reported at each time point post-dose. Latency to fall is averaged (±SEM) across the 10 animals in each treatment group at each time point.

Data set [5] in a line: PK phase, single IV or PO dose of lacosamide in mice (Example 12). The format is in vivo, male CD-1 mice. To be noted: male, CD-1, mouse, plasma. The source says:
For the PK phase, male CD-1 mice were assigned to treatment groups according to the study design in Table Ex 12 below. IV dosing was done via tail vein injection and oral delivery was done with oral gavage tube.

In data set [6] the test system is motor coordination in rats. Briefly: Rotarod, ER profile vs IR profile of lacosamide in rats (Example 15). The data set is classed as in vivo. The protocol: It is hypothesized that reducing the rate of rise of plasma concentrations with the ER profile compared to the IR profile results in reduced CNS impairment. CNS side effects were measured as an impairment of motor coordination in rodents using the rotarod. The rotarod (Ugo Basile, Italy) is a device that allows for quantitative measurement of motor coordination in rodents. Animals experiencing CNS side effects such as dizziness would fall off the rotarod faster than normal animals.
An acceleration protocol was used for training and test sessions, wherein the rotarod was accelerated from 0-40 rpm over a 5 minute session. All rats were then surgically implanted subcutaneously with programmable pumps (iPRECIO, Durect Corporation, Cupertino, Calif.), per the manufacturer's instructions, under anesthesia and using aseptic techniques.
Three days following pump implantation surgery, all rats were tested on the rotarod to obtain baseline performance values. Rats were assigned to treatment groups such that the mean time spent on the rotarod was similar for each group. Four groups of rats were utilized in this study, with 8-10 rats per group:
The total pump infusion duration was 18 hours. Control animals (group 1) were infused with vehicle (20% N-methyl-2-pyrrolidone, NMP) using the same infusion protocol. […] Control animals (group 3) were implanted with pumps containing vehicle and were given an IP bolus of vehicle.
Immediately following the 18 hour pump infusion for the ER groups, or 1 hour after IP injection for the IR groups, rats were placed on the rotarod and the rotarod was accelerated from 0-40 rpm over a 5 minute session, using the built-in function of the equipment. Animals that stayed on the rotarod for the entire session were assigned a run-time of 300 seconds. The time that each animal stayed on the rotarod prior to falling was automatically recorded.

Data set [7] is described as follows: Lacosamide plasma pharmacokinetics, ER infusion vs IP bolus in rats (Example 15). The data set is classed as in vivo. The settings on record: for Slope (rate of rise of plasma concentration): from initiation of drug administration; for Tmax: read-out: median Tmax; for AUC(0-t): read-out: AUC0-18.
The conditions of data set [8]: cited from earlier work. This is another data set of the same source.

Where two headings read alike, the source gives them in different places.

What is called Cmax is the maximum level reached in the sampled fluid or tissue. Broadly, the Tmax is the time at which the peak concentration occurs. As to `C=CC(N)CCC(=O)O` (racemic) [vigabatrin, (RS)-4-aminohex-5-enoic acid], in data set [1] (at steady state), the Cmax was 61000 ng/mL and the T1/2 was 7.5 h. For the same compound, the “elimination / plasma / pharmacokinetic half-life” value in data set [1] (human) is listed as “about 10 hours”. In addition, the Tmax entry in data set [1] (oral dosing, human) was “approximately 1 hours”.

Regarding `NC(=O)N1c2ccccc2CC(O)c2ccccc21` (stereo not shown) [MDH, 10-monohydroxy metabolite], the “elimination / plasma / pharmacokinetic half-life” value in data set [1] (human) was 9 h.

Regarding `CC(=O)N[C@H](CO)C(=O)NCc1ccccc1` [O-desmethyl metabolite], the “reduction of concentrations and amount excreted into urine” value in data set [1] (CYP2C19 poor metabolizers compared to extensive metabolizers) is recorded as “about 70%”. In addition, the “elimination / plasma / pharmacokinetic half-life” value in data set [1] (human) was 15 to 23 h. In addition, the Tmax in data set [1] (oral dosing, human) is 0.5 to 12 h.

As to `CCCC(CCC)C(=O)O` [divalproex sodium], in data set [1] (human), the “elimination / plasma / pharmacokinetic half-life” value is reported as “about 15 hours”.

Regarding `COC[C@@H](NC(C)=O)C(=O)NCc1ccccc1` [lacosamide, R-2-acetamido-N-benzyl-3-methoxypropionamide], the solubility entry in data set [2] is listed as “about 20 mg/ml”. Further, in data set [3] (given dose level), the “time spent on the rotarod, IR profile compared to ER group” value was “significantly reduced time spent on the rotarod (i.e. greater impairment)”. Besides, the “time spent on the rotarod vs dose” value in data set [3] (given infusion protocol, 400 vs 800 mg/day HED) is reported as “decrease in a dose-dependent manner”. In addition, the “latency to fall, PO compared to IV” value in data set [4] (doses with equivalent Cmax but different Tmax (e.g. 30 mg/kg IV and 90 mg/kg PO)) was “greater latency to fall on the rotarod (less impairment)”. Moreover, in data set [4] (same route of administration (IV or PO)), the “effect of an increase in dose on latency to fall” value is “decrease in the latency to fall time on the rotarod”. Besides, the Cmax in data set [5] (90 mg/kg oral dose) was about 40000 ng/mL; in data set [5] (single 10 mg/kg IV dose), about 15000 ng/mL; in data set [5] (single 30 mg/kg IV dose), about 40000 ng/mL; in data set [5] (single 30 mg/kg oral dose), about 15000 ng/mL; in data set [7] (rat, plasma, ip, 19 mg/kg, Group 4 (IR), PK satellite rats), 22000 ng/mL; in data set [7] (rat, plasma, ip, 122 mg/kg, Group 2 (ER), PK satellite rats), 19000 ng/mL. Further, the Tmax was under 0.0833 h in data set [5] (IV route); about 0.25 h in data set [5] (oral route); 0.75 h in data set [7] (rat, plasma, 19 mg/kg, IP bolus, IR profile (Group 4), PK satellite rats); 15 h in data set [7] (rat, plasma, ip, 122 mg/kg, ER infusion protocol (Group 2), PK satellite rats). For the same compound, the “percent change from baseline in time on the rotarod vs vehicle” value in data set [6] (ER groups, p>0.05) was “not statistically different”. In addition, in data set [6] (ER profile (group 2), vehicle 27% increase), the “increase in time on the rotarod from baseline” value is 45%. For the same compound, in data set [6] (IR profile, IP bolus (group 4), vehicle 54% increase), the “reduction in time on the rotarod from baseline” value was 55%. For the same compound, the “Slope (rate of rise of plasma concentration)” value in data set [7] (Group 2 (ER)) came to 1.4 µg/mL/h; in data set [7] (Group 4 (IR)), 62 µg/mL/h. Further, in data set [7] (PK satellite rats), the “reduction in the rate of the rise (slope) ER compared to IR” value stood at 98%. The compound also registered a concentration at 1 h in data set [7] (rat, plasma, intraperitoneal, 19 mg/kg, group 4 (IR profile)) of about 19000 ng/mL. The concentration at 18 h in data set [7] (rat, plasma, intraperitoneal, 122 mg/kg, group 2 (ER profile)) was about 19000 ng/mL. The AUC(0-t) in data set [7] (rat, plasma, ip, 19 mg/kg, Group 4 (IR)) was found to be 18 µg·h/mL; in data set [7] (rat, plasma, ip, 122 mg/kg, Group 2 (ER), 18 hour infusion), 217 µg·h/mL. In addition, in data set [1] (human), the “elimination / plasma / pharmacokinetic half-life” value is listed as “about 13 hours”. Besides, the “effect of CYP2C19 polymorphism on the pharmacokinetics” value in data set [1] (in vivo) is recorded as “no significant effect”.

On to `CC[C@@H](C(N)=O)N1CCCC1=O` [levetiracetam, (S)-alpha-ethyl-2-oxo-pyrrolidine acetamide], for which, in data set [8] (4000 mg daily, untitrated study), the patients reporting somnolence result is given as “Approximately 45%”. For the same compound, the patients with somnolence in data set [8] (compared to 8% with placebo) is 14.8%. The Tmax result in data set [1] (fasted subjects) is on record as “approximately one”. Besides, the “elimination / plasma / pharmacokinetic half-life” value was “about 7 hours” in data set [1] (human) and 6 to 8 h in data set [1] (human, listed as Levetiracetam). The AUC0-24 in data set [1] (in vivo) is 300 to 350 µg·h/mL. In addition, in data set [1] (mostly unmetabolized form), the renal excretion rate is reported as 0.6 mL/min/kg.

With `NC(=O)N1c2ccccc2CC(=O)c2ccccc21` [oxcarbazepine, 10,11-dihydro-10-oxo-5H-dibenz(b,f)azepine-5-carboxamide], the AUC0-24 in data set [1] (600 mg IR BID) was 16.8 µg·h/mL. For the same compound, the Cmax in data set [1] (600 mg IR BID) was 2720 ng/mL. Further, the “elimination / plasma / pharmacokinetic half-life” value in data set [1] (human) is on record as “about 20 hours”; in data set [1] (human, listed as Oxcarbazepine), “approximately 2 hours”. In addition, in data set [1] (oral dosing, human), the Tmax entry is “approximately 3 hours”.

For the compound `CCCC(CCC)C(=O)O` [valproic acid, 2-propylpentanoic acid], in data set [1] (human), the “elimination / plasma / pharmacokinetic half-life” value was 9 to 16 h.

The values above are taken from patent US10987324B2, “Methods and compositions for the treatment of seizure-related disorders” (Adamas Pharmaceuticals, Inc., priority 2015, dated 2021).
